For this experiment, the target named is T1, PIM2 (Homo sapiens, UniProt Q9P1W9).
T1 construct: purchased Thermo Fisher Scientific (Life Technologies) SelectScreen
The experiment can be described thus: SelectScreen Z'LYTE. Type of experiment: biochemical. The gist of the method:
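Percent values come from Thermo SelectScreen profiling of NU5455, combining activity and binding assays. CSF1R was run in Z'LYTE format at Km app ATP, and CAMK1 in Adapta format with ATP listed at 10.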

T1 sequence (Q9P1W9 whole entry): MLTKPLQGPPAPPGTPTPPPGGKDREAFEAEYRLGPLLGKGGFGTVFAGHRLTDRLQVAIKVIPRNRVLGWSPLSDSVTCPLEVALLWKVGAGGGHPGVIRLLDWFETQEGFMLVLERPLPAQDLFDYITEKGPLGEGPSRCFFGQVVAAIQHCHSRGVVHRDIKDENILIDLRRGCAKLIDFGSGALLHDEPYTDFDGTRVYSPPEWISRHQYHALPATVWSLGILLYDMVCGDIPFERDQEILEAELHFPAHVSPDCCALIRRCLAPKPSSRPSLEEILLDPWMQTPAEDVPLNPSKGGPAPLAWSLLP

The inhibition is the drop in the measured response relative to a control, in per cent. Consider `CN(C(=O)CN1CCOCC1)c1ccc2sc3c(-c4cccc5c(=O)cc(N6CC7CCC(C6)O7)oc45)cccc3c2c1` [NU5455], for which the inhibition at 1 µM was -4.3%.

For the origin of these results see publication PMC6934184, “Selective DNA-PKcs inhibition extends the therapeutic index of localized radiotherapy and chemotherapy” (The Journal of Clinical Investigation, 2019).
